Source: ChEMBL document CHEMBL5385901, “Drug repurposing of propafenone to discover novel anti-tumor agents by impairing homologous recombination to delay DNA damage recovery of rare disease conjunctival melanoma” (Eur J Med Chem, 2023)
pIC50: −log10 of the molar value. Active and inactive are the calls of the source. No cut-off for these calls is given here.

What was measured:
[1] = system: CRMM-2; experiment: Antiproliferative activity against human CRMM-2 cells assessed as cell growth inhibition incubated for 72 hrs by CCK8 assay; assay type: functional, cell-based; conditions: CRMM-2, 72 h
[2] = Antiproliferative activity against human CM2005.1 cells assessed as cell growth inhibition incubated for 72 hrs by CCK8 assay; assay type: functional, cell-based; conditions: CM2005.1, 72 h
[3] = system: CRMM-1; experiment: Antiproliferative activity against human CRMM-1 cells assessed as cell growth inhibition incubated for 72 hrs by CCK8 assay; assay type: functional, cell-based; conditions: CRMM-1, 72 h
[4] = Antiproliferative activity against human HL7702 cells assessed as cell growth inhibition incubated for 72 hrs by CCK8 assay; assay type: toxicity, cell-based; conditions: HL7702 (L02) cells
[5] = Antiproliferative activity against human PIG1 cells assessed as cell growth inhibition incubated for 72 hrs by CCK8 assay; assay type: toxicity, cell-based
[6] = system: CRMM-1; experiment: Inhibition of homologous recombination in human CRMM-1 cells at 10 uM incubated for 12 hrs by real-time PCR analysis; assay type: functional, cell-based
[7] = Antiproliferative activity against human CM-AS16 cells assessed as cell growth inhibition incubated for 72 hrs by CCK8 assay; assay type: functional, cell-based; conditions: CM-AS16, 72 h
[8] = Inhibition of homologous recombination in human CRMM-1 cells at 10 uM incubated for 12 hrs by real-time PCR analysis relative to control; assay type: functional

Compound	pIC50 [1]	pIC50 [2]	pIC50 [3]	IC50 at 72 h [4] [µM]	IC50 at 72 h [5] [µM]	inhibition [6]	pIC50 [7]	inhibition at 10 µM [8] [%]
O=C(CCCc1ccccc1)c1c(OCc2cccnc2)ccc2ccccc12	4.31	4.24	4.80	64.9	24.9	inactive		
CCCOCC(=O)COc1ccccc1C(=O)CCc1ccccc1	4.54	4.39	4.38	73.1	56.7		4.43	20.6
CCCNCC(O)COc1ccc(C(=O)CCc2ccccc2)cc1 (centres undefined)	4.68	4.25	4.55	44	26.8		4.72	5.5
CC(C)(C)CNCCCOc1ccc2ccccc2c1C(=O)CCCc1ccccc1	5.29	5.29	5.06	11.1	4		5.30	52.4
CCCNCCCOc1c(C(=O)CCCc2ccccc2)ccc2ccccc12	5.12	4.93	5.14	28.4	14.5		4.97	59.3
O=C(CC(F)(F)F)NCCCOc1ccc2ccccc2c1C(=O)CCCc1ccccc1	4.37	4.71	5.01	29.9	18.5		4.67	40.1
O=C(CCCc1ccccc1)c1c(OCCCn2cccc2)ccc2ccccc12	4.30	4.00	4.12	95.5	75.2			
Cc1cncc(COc2ccc3ccccc3c2C(=O)CCCc2ccccc2)c1	4.42	4.48	4.67	95.4	29.1			47.1
CCC(C)(C)NCCCOc1ccc2ccccc2c1C(=O)CCCc1ccccc1	5.43	5.39	5.32	10.4	5.7		5.51	44.6
CCCNCC(O)COc1ccccc1 (centres undefined)	< 4.00						< 4.00	
CCC(=O)NCCCOc1ccc2ccccc2c1C(=O)CCCc1ccccc1	5.03	4.42	5.09	29.5	19.5		5.05	35
O=C(CCc1ccccc1)c1ccccc1	< 4.00		< 4.00				< 4.00	
CCCNCC(O)COc1ccccc1CCCc1ccccc1 (centres undefined)	4.68	5.02	5.04	19.3	15.7		5.22	57
C=CCNCCCOc1ccc2ccccc2c1C(=O)CCCc1ccccc1	5.51	5.12	5.66	10.5	11.4		5.42	55.7
CCCNCCCOc1ccccc1C(=O)CCCc1ccccc1	5.49	5.59	5.70	32.9	1.7		5.68	71.6
C#CCNCCCOc1ccc2ccccc2c1C(=O)CCCc1ccccc1	5.40	4.93	5.19	30.7	16		5.34	53.2
CCCNCC(O)COc1ccccc1C(=O)Cc1ccccc1 (centres undefined)	4.51	4.22	4.34	> 100	> 100		4.39	57.9
O=C(CCCc1ccccc1)c1c(OCCCNC2CC2)ccc2ccccc12	4.79	4.98	4.99	32.4	8		4.85	29.3
O=C(CCCc1ccccc1)c1c(OCCCN2CCC2)ccc2ccccc12	4.42	4.48	4.69	69.6	42.1		4.49	17.9
CCCNCCCOc1ccc2ccccc2c1C(=O)CCCc1ccccc1	5.42	5.39	5.51	28.8	78.2		5.40	75.2
CCCCCCNCCCOc1ccccc1C(=O)CCCc1ccccc1	5.80	4.80	5.19	10.6	9.2		5.23	57.2

Compound	pIC50 [1]	pIC50 [2]	pIC50 [3]	IC50 at 72 h [4] [µM]	IC50 at 72 h [5] [µM]	inhibition [6]	pIC50 [7]	inhibition at 10 µM [8] [%]
CCCCCCCNCCCOc1ccccc1C(=O)CCCc1ccccc1	6.22	5.89	5.96	0.7	0.5		5.20	64.8
CCCNCC(O)COc1ccccc1C(O)CCc1ccccc1 (centres undefined)	4.83	4.13	4.26	71.5	89.6		4.73	15.7
O=C(CCCc1ccccc1)c1c(OCCCN2CCCC2)ccc2ccccc12	5.10	4.89	5.25	22	7.8		4.92	71
CCCN1CC(COc2ccccc2C(=O)CCc2ccccc2)OC1=O (centres undefined)						inactive	< 4.00	
CN1CCN(CCCOc2ccc3ccccc3c2C(=O)CCCc2ccccc2)CC1	5.38	5.23	5.25	10.5	10.4		5.28	54.2
CCCNCC(O)COc1ccccc1C(=O)NCc1ccccc1 (centres undefined)							< 4.00	
CCCNCCCOc1cccc2cccc(C(=O)CCCc3ccccc3)c12	5.23	5.08	5.01	10.2	6.8		5.06	59
C=CC(=O)NCCCOc1ccc2ccccc2c1C(=O)CCCc1ccccc1	4.76	4.43	4.76	70.2	25.7		4.74	66.9
O=C(CCCc1ccccc1)c1c(OCCCN2CCOCC2)ccc2ccccc12	5.38	6.00	5.64	31.8	18.3		5.38	83.2
CCCCNCCCOc1ccccc1C(=O)CCCc1ccccc1	5.96	5.27	5.74	3.7	9.1		5.31	38.3
CCCN(C)CC(O)COc1ccccc1C(=O)CCc1ccccc1 (centres undefined)	4.84	4.21	4.31	97.2	71.9		4.65	30.3
CCCNCCCOc1ccccc1C(=O)CCc1ccccc1	4.44	4.16	4.26	64.8	66.4		5.00	65
CCCNCCCOc1cc2c(cc1C(=O)CCCc1ccccc1)OCO2	5.09	5.17	5.16	32.7	15.5		4.97	43
CCCCCC(O)COc1ccccc1C(=O)CCc1ccccc1 (centres undefined)	4.26	4.33	4.78	22.3	> 100		4.86	51.2
CCCNCC(O)COc1cccc(C(=O)CCc2ccccc2)c1 (centres undefined)	4.65	4.42	4.55	69.1	62.4		4.78	52.5
O=C(CCCc1ccccc1)c1c(OCCCN2CCSC2)ccc2ccccc12	5.18	4.92	4.99	51.5	29.7		5.04	72.1
CCCNCCCOc1cc2ccccc2cc1C(=O)CCCc1ccccc1	5.17	5.18	4.98	11.9	13.6		5.17	67.1
CCCCCCCNCC(O)COc1ccccc1C(=O)CCc1ccccc1 (centres undefined)	5.18	5.34	5.59	5.7	8.8		5.25	53.9
CC(C)(C)C(=O)NCCCOc1ccc2ccccc2c1C(=O)CCCc1ccccc1	4.53	4.44	4.88	39.9	14.2			55
CCCOCC(O)COc1ccccc1C(=O)CCc1ccccc1 (centres undefined)	4.54	4.28	4.68	65	73.8		4.86	20.1
CCCNCC(O)COc1ccccc1C(=O)CCCc1ccccc1 (centres undefined)	4.54	4.60	4.60	46	33.2		5.31	62.2
